In US3969521A, “Pharmaceutical compositions containing tetrahydroalstonine and method for treating circulation disorders” (Science Union et Cie, Societe Francaise de Recherche Medical, priority 1974, dated 1976):
“Also recorded” adds a separate entry of the source.

Legend:
central nervous system = assay: Effects on the central nervous system; format: in vivo
[1] = system: analgetic effect of Morphine; assay: Analgetic effect of Morphine; conditions: in vivo
mice (Rockland strain) = assay: Acute toxicity, oral; conditions: mouse, in vivo
Protocol: (§1) The search of an acute toxicity has been carried out on lots of mice (Rockland strain) weighing from […]. The mice received orally increasing dosis of tetrahydroalstonine suspended in an aqueous solvent.
(§2) The animals are kept under survey for 7 days and the deaths are recorded. The average lethal dosis has been graphically calculated according to the method of Wilcoxon and Litchfield. A lot of mice received only the solvent as controls.

in vivo = conditions: mouse, po
Protocol: as §1, §2

arterial blood pressure = conditions: dog, in vivo, 100 mg/kg
Protocol: This test has been carried out on lots of five dogs weighing from 16 to 20 kg. The dogs have been previously anaesthetized with chloralose by intravenous way and the intravenous injection of 50 mg heparine for each dog is renewed every 150 minutes.
The average arterial blood pressure is determined by dissection of a brachial artery and insertion of a catheter connected with a Statham P23 Db transducer.
The various parameters have been recorded by means on a polygraph and the hemodynamic survey has been afforded with two tracks-cathodic tubes.

blood-sugar levels = conditions: rat, thesis (Kocialski); cited from earlier work
[2] = system: recovery of learned memories; assay: Recovery of learned memories after electroshock (aquatic maze crossing); format: in vivo, rat
From the text: Effects of tetrahydroalstonine on the recovery of learned memories on rats.
Tetrahydroalstonine has been tested on lots of rats in order to determine how fast it allows the recovery of learned memories after supramaximal electroshock in comparision with Vincamine and Papaverine. These last compounds are known to be active on the circulation namely as vasodilating agents.
In this test, as described by C. Giurgea (J. Pharmacol. (Paris) 3 17 (1972)), the rats are submitted to a submaximal electroshock which causes a spatio-temporal desorientation. This syndrom is evidenced by the difficulties the tested animals encountered for crossing over a maze filled with cold water without any error, after they have been submitted to the electroshock. The rats have been previously trained to swimm through this maze and the training has been renewed four times for 2 days.
The electric shock was delivered by means of a Neurovar apparatus (ALVAR Electronics) the third day. 20 Minutes after the electro shock, each lot of rats is tested and the time for crossing over the maze is determined. Immediately after, the rats received the compound to be tested by intra oesophageal tubing. Each lot is then experienced four times, 1, 2, 3, and 4 hours after the electroshock.
The score of performances of each individual is recorded and every error during the crossing over noticed.
The compounds to be tested (papaverine, vincamine and tetrahydroalstonine) are given to the animals, suspended in an aqueous solution of carboxymethylcellulose and sorbitan monooleate.
Papaverine and vincamine were administered at dosis ranging from 1 to 20 mg/kg. Tetrahydroalstonine was administered at a dosis of 0.6 mg/kg, 6 mg/kg and 60 mg/kg.
A lot of rats received only the aqueous solvent under the same volume (0.5 ml/100 g animal) as controls.
Therein are reported for each lot of rats the number of errors and the average time for crossing over the maze during the 5 tests performed after the animals have been subjected to the electroshock.
The treatment has been given 20 mn after the electroshock, immediately
after the first crossing over

[3] = system: Hexobarbital-induced sleeping time; assay: Hexobarbital-induced sleeping time; format: in vivo; conditions: rodents, high dosages
[4] = system: carrageenin-induced paw oedema; conditions: rat, thesis (Kocialski); cited from earlier work
[5] = 0,6 mg/kg P.O., 20 minutes after electroshock (before treatment)
[6] = 6 mg/kg P.O., 20 minutes after electroshock (before treatment)
[7] = 60 mg/kg P.O., 20 minutes after electroshock (before treatment)

**Q.** What does the source list for COC(=O)C1=CO[C@@H](C)[C@@H]2CN3CCc4c([nH]c5ccccc45)[C@@H]3C[C@H]12 [Tetrahydroalstonine]?
**A.** effect on the central nervous system (central nervous system; dosage not stated): diphasic; effect on the central nervous system (central nervous system; higher dosages (20 to 40 mg/kg per os)): sedative effect; effect on the central nervous system (central nervous system; higher dosages (dose not stated)): sedative effects; effect on the central nervous system (central nervous system; low dosages): stimulating properties; also recorded: slight stimulating action; effect on the analgetic effect of Morphine [1]: increases the analgetic effect of Morphine; toxicity (mice (Rockland strain)): practically devoid of toxic effect; LD50 at 168 h (in vivo): > 3000 mg/kg; noticeable decrease of the blood arterial pressure (incidence) (arterial blood pressure): one case out of five; effect on blood-sugar levels (blood-sugar levels): negative; a = variation of average number of errors as regard as the controls ([2]; 0,6 mg/kg P.O., 20 minutes (before treatment)): -; E = average number of errors [2, 5]: 12,3; T = average time for crossing over [2, 5]: 124,2 seconds; E = average number of errors ([2]; 0,6 mg/kg P.O., 60 minutes): 8,4; T = average time for crossing over ([2]; 0,6 mg/kg P.O., 60 minutes): 85,2 seconds; a = variation of average number of errors as regard as the controls ([2]; 0,6 mg/kg P.O., 60 minutes): -; E = average number of errors ([2]; 0,6 mg/kg P.O., 120 minutes): 6,2; T = average time for crossing over ([2]; 0,6 mg/kg P.O., 120 minutes): 66,4 seconds; a = variation of average number of errors as regard as the controls ([2]; 0,6 mg/kg P.O., 120 minutes): -; E = average number of errors ([2]; 0,6 mg/kg P.O., 180 minutes): 3,1; T = average time for crossing over ([2]; 0,6 mg/kg P.O., 180 minutes): 37,9 seconds; a = variation of average number of errors as regard as the controls ([2]; 0,6 mg/kg P.O., 180 minutes): -; b = statistical value (student's test), number of errors ([2]; 0,6 mg/kg P.O., 180 minutes): 0,01; E = average number of errors ([2]; 0,6 mg/kg P.O., 240 minutes): 2,0; T = average time for crossing over ([2]; 0,6 mg/kg P.O., 240 minutes): 29,4 seconds; a = variation of average number of errors as regard as the controls ([2]; 0,6 mg/kg P.O., 240 minutes): -; b = statistical value (student's test), number of errors ([2]; 0,6 mg/kg P.O., 240 minutes): 0,0005; potency compared with papaverine or vincamine ([2]; 0.6 mg/kg): competes with that of 20 mg/kg of papaverine or vincamine; time after which the statistically significant decrease of the number of mistakes appeared ([2]; 0.6 mg/kg): 180 mn; start of the improving effect ([2]; 6 mg/kg): 60 mn; time after which the statistically significant decrease of the number of mistakes appeared ([2]; 6 mg/kg): 120 mn; a = variation of average number of errors as regard as the controls ([2]; 6 mg/kg P.O., 20 minutes (before treatment)): -; E = average number of errors [2, 6]: 12,3; T = average time for crossing over [2, 6]: 133,5 seconds; E = average number of errors ([2]; 6 mg/kg P.O., 60 minutes): 6,9; T = average time for crossing over ([2]; 6 mg/kg P.O., 60 minutes): 75,1 seconds; a = variation of average number of errors as regard as the controls ([2]; 6 mg/kg P.O., 60 minutes): -; E = average number of errors ([2]; 6 mg/kg P.O., 120 minutes): 4,4; T = average time for crossing over ([2]; 6 mg/kg P.O., 120 minutes): 52,5 seconds; a = variation of average number of errors as regard as the controls ([2]; 6 mg/kg P.O., 120 minutes): -; b = statistical value (student's test), number of errors ([2]; 6 mg/kg P.O., 120 minutes): 0,05; E = average number of errors ([2]; 6 mg/kg P.O., 180 minutes): 3,6; T = average time for crossing over ([2]; 6 mg/kg P.O., 180 minutes): 54,6 seconds; a = variation of average number of errors as regard as the controls ([2]; 6 mg/kg P.O., 180 minutes): -; b = statistical value (student's test), number of errors ([2]; 6 mg/kg P.O., 180 minutes): 0,05; E = average number of errors ([2]; 6 mg/kg P.O., 240 minutes): 2,5; T = average time for crossing over ([2]; 6 mg/kg P.O., 240 minutes): 23,8 seconds; a = variation of average number of errors as regard as the controls ([2]; 6 mg/kg P.O., 240 minutes): -; b = statistical value (student's test), number of errors ([2]; 6 mg/kg P.O., 240 minutes): 0,005; time after which the statistically significant decrease of the number of mistakes appeared ([2]; 60 mg/kg): 60 mn; a = variation of average number of errors as regard as the controls ([2]; 60 mg/kg P.O., 20 minutes (before treatment)): -; E = average number of errors [2, 7]: 10,6; T = average time for crossing over [2, 7]: 135,0 seconds; E = average number of errors ([2]; 60 mg/kg P.O., 60 minutes): 5,8; T = average time for crossing over ([2]; 60 mg/kg P.O., 60 minutes): 62,2 seconds; a = variation of average number of errors as regard as the controls ([2]; 60 mg/kg P.O., 60 minutes): -; b = statistical value (student's test), number of errors ([2]; 60 mg/kg P.O., 60 minutes): 0,025; E = average number of errors ([2]; 60 mg/kg P.O., 120 minutes): 2,7; T = average time for crossing over ([2]; 60 mg/kg P.O., 120 minutes): 28,8 seconds; a = variation of average number of errors as regard as the controls ([2]; 60 mg/kg P.O., 120 minutes): -; b = statistical value (student's test), number of errors ([2]; 60 mg/kg P.O., 120 minutes): 0,005; E = average number of errors ([2]; 60 mg/kg P.O., 180 minutes): 1,6; T = average time for crossing over ([2]; 60 mg/kg P.O., 180 minutes): 18,8 seconds; a = variation of average number of errors as regard as the controls ([2]; 60 mg/kg P.O., 180 minutes): -; b = statistical value (student's test), number of errors ([2]; 60 mg/kg P.O., 180 minutes): 0,0005; E = average number of errors ([2]; 60 mg/kg P.O., 240 minutes): 1,8; T = average time for crossing over ([2]; 60 mg/kg P.O., 240 minutes): 20,1 seconds; a = variation of average number of errors as regard as the controls ([2]; 60 mg/kg P.O., 240 minutes): -; b = statistical value (student's test), number of errors ([2]; 60 mg/kg P.O., 240 minutes): 0,0005; dose dependence of the effect on number of mistakes ([2]; 0.6, 6 and 60 mg/kg): closely related to the used dosis; time after the convulsive shock at which recovery of the memory is complete ([2]; highest tested dosage (60 mg/kg)): 120 mn; activity relative to papaverine and vincamine ([2]; rat, in vivo): more active; effect on the recovery of learned memory ([2]; rat, in vivo): improving effect; Hexobarbital-induced sleeping time [3]: increased; effect on carrageenin-induced paw oedema [4]: negative
